Data set [1] has as its system human umbilical cord blood derived CD34+ cells. Nature of the data set: CD34+ cell survival in hypoxia and serum deprived conditions (Annexin V/PI flow cytometry). It counts as cell-based. The following applies: for percentage of viable cells: LPA-treated (100 μM). The procedure: In an embodiment, UCB CD34+ cells (1×10^^6 cells/mL) were incubated in X-Vivo media (Lonza) in a hypoxia chamber for 24 h (0.5% of O2 and 5% of CO2), in the presence or absence of pharmacological drugs, for further assessment of cell survival/apoptosis and necrosis by FACS analysis of the expression of annexin V and PI respectively. Preferably, cells were pretreated with the respective drugs for 1 hour before hypoxia, and treatment maintained during hypoxia.
In a preferred embodiment, to identify molecules that promote CD34+ cell survival in hypoxia and serum deprived conditions we developed an assay that uses human umbilical cord blood derived CD34+ cells (2×10^^5 cells per well of a 96-well plate) suspended in X-Vivo medium (used in clinical trials (Schachinger, V., et al., Intracoronary bone marrow-derived progenitor cells in acute myocardial infarction. N Engl J Med, 2006. 355(12): p. 1210-21)) and incubated in a hypoxia chamber at 0.5% O2, at 37° C., for 24 h. Some of the drugs selected have been approved by FDA for the treatment of cardiovascular diseases (e.g. Nebivolol Lombardo, R. M., et al., Effects of nebivolol versus carvedilol on left ventricular function in patients with chronic heart failure and reduced left ventricular systolic function. Am J Cardiovasc Drugs, 2006. 6(4): p. 259-63; Ibersatan Massie, B. M., et al., Irbesartan in patients with heart failure and preserved ejection fraction. N Engl J Med, 2008. 359(23): p. 2456-67), others are being evaluated in pre-clinical/clinical assays to improve heart function in patients/models with heart failure (e.g. INO1001 (Szabo, G., et al., INO-1001 a novel poly(ADP-ribose) polymerase (PARP) inhibitor improves cardiac and pulmonary function after crystalloid cardioplegia and extracorporal circulation. Shock, 2004. 21(5): p. 426-32); erythropoietin (Belonje, A. M., et al., Effects of erythropoietin after an acute myocardial infarction: rationale and study design of a prospective, randomized, clinical trial (HEBE III). Am Heart J, 2008. 155(5): p. 817-22); melatonin (Chen, Z., et al., Protective effect of melatonin on myocardial infarction. Am J Physiol Heart Circ Physiol, 2003. 284(5): p. H1618-24); VX-702 (Ma, X. L., et al., Inhibition of p38 mitogen-activated protein kinase decreases cardiomyocyte apoptosis and improves cardiac function after myocardial ischemia and reperfusion. Circulation, 1999. 99(13): p. 1685-91)), others are natural substances found in the human body (LPA). Cell viability was evaluated by flow cytometry using Annexin V/propidium iodide (PI) staining. Annexin V is a phospholipid-binding protein with specificity for phospatidyl serine, one of the earliest makers of cellular transition to an apoptotic state. This phospholipid is translocated from the inner to the outer leaflet of the plasma membrane (Koopman, G., et al., Annexin V for flow cytometric detection of phosphatidylserine expression on B cells undergoing apoptosis. Blood, 1994. 84(5): p. 1415-20.). PI enters in necrotic cells and binds to double-stranded nucleic acids, but is excluded from cells with normal integrity. According to FIG. 1, untreated CD34+ cells show a very poor survival, with only ˜31% of viable cells, ˜31% of apoptotic cells (Annexin V+/PI−) being the majority of the cells ˜39% at the necrotic stage (PI+). […] LPA (10 μM) was the drug with the highest pro-survival effect (˜69% of viable cells) and therefore further studied (FIGS. 1 and 2A).
Importantly, the percentage of viable cells in CD34+ treated with 1 μM of LPA and cultured under hypoxia conditions is similar to untreated cells cultured under normoxia conditions. The pro-survival effect of LPA decreases as a function of hypoxia time (FIG. 2C). The percentage of viable cells in LPA-treated CD34+ cells decreased from 78% at day 1 to 40% at day 3.
Background: A flow cytometer gives signals particle by particle.

Another data set deals with CD34+ cells. Nature of the data set: CD34+ cell proliferation after hypoxia 24 h then normoxia 6 days. The class given is cell-based, human. The following applies: LPA 100 μM; 24 h hypoxia + 6 days normoxia (7 days period). From the text: LPA is highly mitogenic for quiescent cells. The mitogenic action of LPA involves the activation of a pertussis toxin-insensitive G protein with subsequent Ca^2+ mobilization and stimulation of protein kinase C, release of arachidonic acid in a GTP-dependent manner, and activation of a pertussis toxinsensitive Gi protein mediating inhibition of adenylate cyclase (van Corven, E. J., et al., Lysophosphatidate-induced cell proliferation: identification and dissection of signaling pathways mediated by G proteins. Cell, 1989. 59(1): p. 45-54). To determine whether LPA can induce the proliferation of CD34+ cells, a suspension of untreated or LPA-treated cells (2×10^^5 cells in 200 μL of X-vivo medium) was exposed to hypoxia for 24 h and then cultured under normoxia conditions for 6 additional days. LPA-treated cells increased their number approximately 3-fold over the 7 days period while untreated cells decreased to half of their initial number (FIG. 3A).

Data set [2] concerns the target T1, peroxisome proliferator-activator receptor γ (PPAR γ) (Homo sapiens, UniProt P37231).
T1 sequence (P37231 1-505): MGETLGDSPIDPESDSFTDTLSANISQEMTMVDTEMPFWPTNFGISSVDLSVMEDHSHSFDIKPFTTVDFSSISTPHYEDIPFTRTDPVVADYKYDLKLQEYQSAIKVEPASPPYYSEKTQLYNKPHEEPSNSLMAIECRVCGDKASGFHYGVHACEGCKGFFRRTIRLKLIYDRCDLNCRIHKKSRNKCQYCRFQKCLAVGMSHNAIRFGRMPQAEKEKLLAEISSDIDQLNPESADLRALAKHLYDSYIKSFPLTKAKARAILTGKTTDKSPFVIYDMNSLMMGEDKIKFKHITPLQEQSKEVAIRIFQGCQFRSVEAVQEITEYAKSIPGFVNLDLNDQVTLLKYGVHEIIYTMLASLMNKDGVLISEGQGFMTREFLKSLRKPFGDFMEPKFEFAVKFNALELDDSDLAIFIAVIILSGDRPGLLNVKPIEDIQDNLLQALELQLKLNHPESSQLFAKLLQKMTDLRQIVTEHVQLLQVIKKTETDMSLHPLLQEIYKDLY
The following applies: literature studies; cited from earlier work.

For lysophosphatidic acid [LPA], the “survival of CD34+ cells vs control (untreated cells)” value in data set [1] (1 μM LPA, hypoxia 24 h, P<0.001, n=6) is on record as “statistically significant”. Further, the viable cells in data set [1] (LPA 10 μM, hypoxia 0.5% O2, 24 h, serum free X-Vivo medium) is listed as ~69%. The “percentage of viable cells” value in data set [1] (hypoxia day 1) is 78%; in data set [1] (hypoxia day 3), 40%. Besides, in data set [1] (hypoxia 0.5% O2, 24 h, serum free, P<0.001), the “cell survival vs untreated cells” value is “improved significantly”. Also, the “survival relatively to untreated cells” value in data set [1] (hypoxia and serum deprived conditions) is “double their survival”. Further, in the data set on CD34+ cells, the “increase in cell number” value was “approximately 3 fold”. Also, the “affinity for PPARγ” value in data set [2] is recorded as “high affinity”.

Source of the values: patent publication US9868935B2, “Composition and method of stem cells for preservation of cardiac tissue” (CRIOESTAMINAL, SAÚDE E TECNOLOGIA, SA., priority 2012, dated 2018).
